Read-outs that look alike come from different tables or passages of the source.
Key:
[1] = biological target: T1, Rat recombinant PDE10A (rPDE10A2) (Rattus norvegicus, UniProt Q9QYJ6); experiment: In vitro assay PDE10A (SPA, 3H-cAMP); assay type: biochemical
T1 construct: made in house; host or cells: Sf9 insect cells, baculovirus
T1 sequence (Q9QYJ6 1-794): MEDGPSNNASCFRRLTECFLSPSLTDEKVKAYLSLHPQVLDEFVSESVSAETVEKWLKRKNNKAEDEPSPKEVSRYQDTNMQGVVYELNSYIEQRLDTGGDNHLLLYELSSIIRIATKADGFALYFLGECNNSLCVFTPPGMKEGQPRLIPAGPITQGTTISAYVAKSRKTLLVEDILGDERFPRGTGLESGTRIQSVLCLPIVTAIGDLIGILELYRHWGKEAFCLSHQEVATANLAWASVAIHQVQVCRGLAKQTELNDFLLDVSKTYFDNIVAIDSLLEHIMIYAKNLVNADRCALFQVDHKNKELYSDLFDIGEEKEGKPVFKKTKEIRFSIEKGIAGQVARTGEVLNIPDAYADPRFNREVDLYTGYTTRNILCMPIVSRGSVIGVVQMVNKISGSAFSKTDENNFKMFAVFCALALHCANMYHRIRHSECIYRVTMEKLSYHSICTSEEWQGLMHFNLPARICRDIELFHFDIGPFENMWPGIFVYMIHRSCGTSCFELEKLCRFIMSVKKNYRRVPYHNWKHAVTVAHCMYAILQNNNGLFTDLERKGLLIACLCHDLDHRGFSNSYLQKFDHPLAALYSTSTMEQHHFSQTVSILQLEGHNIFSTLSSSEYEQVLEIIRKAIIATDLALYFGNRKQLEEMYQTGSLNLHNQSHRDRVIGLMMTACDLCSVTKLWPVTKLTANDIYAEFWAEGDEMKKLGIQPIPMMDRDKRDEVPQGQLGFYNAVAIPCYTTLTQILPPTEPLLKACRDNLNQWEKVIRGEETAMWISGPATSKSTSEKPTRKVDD
In short: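 Purified Sf9-expressed rat PDE10A2 incubated 60 min at RT with 60 nM cAMP plus 0.008 μCi 3H-cAMP in 50 mM Tris pH 7.8, 8.3 mM MgCl2, 1.7 mM EGTA, 1% DMSO final. Product quantified by scintillation proximity counting against no-enzyme blanks and DMSO controls.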

PDE2A = PDE2A (Homo sapiens, UniProt O00408); experiment: In vitro PDE selectivity assay, PDE2A; assay type: biochemical; conditions: Table 4a in vitro selectivity; read-out: IC50 PDE type 2A
Chain of PDE2A (O00408 whole entry, species assumed): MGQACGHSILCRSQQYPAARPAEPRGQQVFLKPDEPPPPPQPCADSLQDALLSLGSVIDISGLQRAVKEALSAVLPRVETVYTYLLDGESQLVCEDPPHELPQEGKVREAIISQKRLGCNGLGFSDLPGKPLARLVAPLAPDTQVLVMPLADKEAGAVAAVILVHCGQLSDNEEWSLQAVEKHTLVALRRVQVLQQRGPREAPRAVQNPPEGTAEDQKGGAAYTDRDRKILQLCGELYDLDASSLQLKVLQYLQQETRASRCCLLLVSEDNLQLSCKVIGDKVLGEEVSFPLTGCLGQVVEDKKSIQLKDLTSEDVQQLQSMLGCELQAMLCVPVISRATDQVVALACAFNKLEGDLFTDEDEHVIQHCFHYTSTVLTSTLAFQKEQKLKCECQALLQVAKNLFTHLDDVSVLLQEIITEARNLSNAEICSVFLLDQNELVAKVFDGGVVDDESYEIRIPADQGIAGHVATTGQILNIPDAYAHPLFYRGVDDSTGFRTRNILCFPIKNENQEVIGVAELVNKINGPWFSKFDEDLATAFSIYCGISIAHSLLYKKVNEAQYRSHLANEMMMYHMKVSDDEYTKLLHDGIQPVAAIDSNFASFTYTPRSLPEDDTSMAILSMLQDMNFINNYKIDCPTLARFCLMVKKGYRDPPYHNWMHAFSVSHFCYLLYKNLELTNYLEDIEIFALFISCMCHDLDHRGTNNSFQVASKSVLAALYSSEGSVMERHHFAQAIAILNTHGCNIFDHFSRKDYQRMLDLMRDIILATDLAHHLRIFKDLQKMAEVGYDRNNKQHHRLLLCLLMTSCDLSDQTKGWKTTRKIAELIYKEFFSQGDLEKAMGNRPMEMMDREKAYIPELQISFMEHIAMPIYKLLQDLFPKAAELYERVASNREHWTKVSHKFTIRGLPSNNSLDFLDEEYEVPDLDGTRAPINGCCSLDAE
Description: (§1) Rat recombinant PDE10A (rPDE10A2) was expressed in Sf9 cells using a recombinant rPDE10A baculovirus construct. Cells were harvested after 48 h of infection and the rPDE10A protein was purified by metal chelate chromatography on Ni-sepharose 6FF. […] The reaction was incubated for 60 min. at RT. […] After sedimentation of the beads during 30 min. the radioactivity was measured in a Perkin Elmer Topcount scintillation counter and results were expressed as cpm. For blank values the enzyme was omitted from the reaction and replaced by incubation buffer. […] The same assay principle is applied for the measurement of the affinity of the compound for other members of the PDE family with appropriate modifications in incubation buffer, substrate concentration, incubation time and stop solution.

PDE9A = PDE9A (Homo sapiens, UniProt O76083); experiment: In vitro PDE selectivity assay, PDE9A; assay type: biochemical; conditions: Table 4a in vitro selectivity; read-out: IC50 PDE type 9A
Chain of PDE9A (O76083 whole entry): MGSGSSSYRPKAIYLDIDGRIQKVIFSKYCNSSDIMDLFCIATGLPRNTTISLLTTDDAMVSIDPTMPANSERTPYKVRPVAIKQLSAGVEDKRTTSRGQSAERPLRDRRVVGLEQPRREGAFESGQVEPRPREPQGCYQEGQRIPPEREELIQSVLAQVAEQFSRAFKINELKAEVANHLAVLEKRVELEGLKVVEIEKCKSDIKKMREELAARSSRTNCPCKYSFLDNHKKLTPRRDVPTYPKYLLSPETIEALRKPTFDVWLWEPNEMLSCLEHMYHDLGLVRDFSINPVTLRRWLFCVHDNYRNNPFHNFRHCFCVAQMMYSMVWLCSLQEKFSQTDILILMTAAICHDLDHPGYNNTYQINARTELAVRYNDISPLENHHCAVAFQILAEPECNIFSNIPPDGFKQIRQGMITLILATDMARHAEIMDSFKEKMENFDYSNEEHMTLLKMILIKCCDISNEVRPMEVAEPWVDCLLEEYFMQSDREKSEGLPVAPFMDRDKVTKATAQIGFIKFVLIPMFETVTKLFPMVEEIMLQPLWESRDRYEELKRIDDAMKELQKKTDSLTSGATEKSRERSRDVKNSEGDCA
Description: as §1

PDE11A = PDE11A (Homo sapiens, UniProt Q9HCR9); experiment: In vitro PDE selectivity assay, PDE11A; assay type: biochemical; conditions: Table 4a in vitro selectivity; read-out: IC50 PDE type 11A
Chain of PDE11A (Q9HCR9 whole entry, species assumed): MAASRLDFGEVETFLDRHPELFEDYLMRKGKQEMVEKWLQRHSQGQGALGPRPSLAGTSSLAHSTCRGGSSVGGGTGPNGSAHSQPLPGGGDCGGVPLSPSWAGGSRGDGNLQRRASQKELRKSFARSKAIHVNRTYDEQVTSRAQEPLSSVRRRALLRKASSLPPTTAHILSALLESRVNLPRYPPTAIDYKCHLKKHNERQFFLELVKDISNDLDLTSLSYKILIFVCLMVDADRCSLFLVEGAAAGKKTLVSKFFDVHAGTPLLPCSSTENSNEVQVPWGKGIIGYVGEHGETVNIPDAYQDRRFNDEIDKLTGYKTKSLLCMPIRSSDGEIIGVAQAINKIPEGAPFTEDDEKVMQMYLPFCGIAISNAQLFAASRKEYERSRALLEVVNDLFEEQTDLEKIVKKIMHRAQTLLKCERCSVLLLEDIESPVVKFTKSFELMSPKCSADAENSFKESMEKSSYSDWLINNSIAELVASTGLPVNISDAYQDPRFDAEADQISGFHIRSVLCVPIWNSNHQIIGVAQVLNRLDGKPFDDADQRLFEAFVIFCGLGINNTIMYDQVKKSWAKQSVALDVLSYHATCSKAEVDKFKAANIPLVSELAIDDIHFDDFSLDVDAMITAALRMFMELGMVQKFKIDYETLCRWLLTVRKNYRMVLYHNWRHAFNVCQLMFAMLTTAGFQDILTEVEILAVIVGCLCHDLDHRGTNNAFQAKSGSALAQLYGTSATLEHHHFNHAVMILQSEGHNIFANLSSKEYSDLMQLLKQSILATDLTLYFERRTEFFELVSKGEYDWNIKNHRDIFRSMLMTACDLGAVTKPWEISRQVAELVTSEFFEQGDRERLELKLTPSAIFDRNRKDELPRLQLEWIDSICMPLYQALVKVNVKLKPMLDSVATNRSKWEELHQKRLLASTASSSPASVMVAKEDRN
Description: as §1

[2] = test system: apomorphine-induced stereotypy; experiment: Apomorphine-induced stereotypy in rats (APO); assay type: in vivo; conditions: Rattus norvegicus, read-out: APO ED50
Description: Apomorphine-Induced Stereotypy in Rats (APO)
Apomorphine (1.0 mg/kg, i.v.)-induced stereotypy (compulsive sniffing, licking, chewing) was scored every 5 min. over the first hour after injection of apomorphine, following a 1 hour interval pre-treatment with the test compound. The score system was: (3) pronounced, (2) moderate, (1) slight, and (O) absent.

[3] = test system: PCP-induced hyperlocomotion; experiment: PCP-induced hyperlocomotion in rats (PCP); assay type: in vivo; conditions: Rattus norvegicus

For `Cc1nc2c(N3CCOCC3)nccn2c1-c1ccc(C2CCOCC2)nc1` [compound 25, 2-Methyl-8-morpholin-4-yl-3-[6-(tetrahydro-pyran-4-yl)-pyridin-3-yl]-imidazo[1,2-a]pyrazine], which IC50 ([1]; Table 4a in vitro selectivity, read-out: IC50 PDE type 10A) is on record?
Its IC50 is 0.16 µM.

And the IC50 ([1]; pIC50 corresponds to the -log IC50 expressed in mol/L, read-out: PDE10A2 pIC50 (converted))?
Its IC50 is 0.191 µM.

What about the IC50 (PDE2A) of the same compound?
The IC50 was 42.7 µM.

And the IC50 (PDE9A)?
Its IC50 is greater than 100 µM.

What about the IC50 (PDE11A) of the same compound?
The IC50 was 66.1 µM.

And the ED50 [2]?
The ED50 was 1.2 mg/kg.

What about the ED50 [3] of the same compound?
The ED50 was 2 mg/kg.
